{"source": "paper PMC5762315", "about": "“Inhibition of polo-like kinase 4 (PLK4): a new therapeutic option for rhabdoid tumors and pediatric medulloblastoma” (Oncotarget, 2017)", "key": {"MUSK": {"biological_target": "MUSK (Homo sapiens, UniProt O15146)", "test": "Kinase activity screening (SelectScreen), MUSK", "assay_type": "biochemical", "settings": "10-point titration"}, "various kinases [1]": {"biological_target": "various kinases (Homo sapiens, UniProt O00443)", "test": "Adapta Universal Kinase Assay, panel of 486 biochemical kinase assays", "design": "% Inhibition Average: concentration or dose not given beside the values", "settings": "PIK3C2A (PI3K-C2 alpha)"}, "various kinases [2]": {"biological_target": "various kinases (Homo sapiens, UniProt O00750)", "test": "Adapta Universal Kinase Assay, panel of 486 biochemical kinase assays", "design": "% Inhibition Average: concentration or dose not given beside the values", "settings": "PIK3C2B (PI3K-C2 beta)"}, "various kinases [3]": {"biological_target": "various kinases (Homo sapiens, UniProt O14986)", "sequence (O14986 whole entry)": "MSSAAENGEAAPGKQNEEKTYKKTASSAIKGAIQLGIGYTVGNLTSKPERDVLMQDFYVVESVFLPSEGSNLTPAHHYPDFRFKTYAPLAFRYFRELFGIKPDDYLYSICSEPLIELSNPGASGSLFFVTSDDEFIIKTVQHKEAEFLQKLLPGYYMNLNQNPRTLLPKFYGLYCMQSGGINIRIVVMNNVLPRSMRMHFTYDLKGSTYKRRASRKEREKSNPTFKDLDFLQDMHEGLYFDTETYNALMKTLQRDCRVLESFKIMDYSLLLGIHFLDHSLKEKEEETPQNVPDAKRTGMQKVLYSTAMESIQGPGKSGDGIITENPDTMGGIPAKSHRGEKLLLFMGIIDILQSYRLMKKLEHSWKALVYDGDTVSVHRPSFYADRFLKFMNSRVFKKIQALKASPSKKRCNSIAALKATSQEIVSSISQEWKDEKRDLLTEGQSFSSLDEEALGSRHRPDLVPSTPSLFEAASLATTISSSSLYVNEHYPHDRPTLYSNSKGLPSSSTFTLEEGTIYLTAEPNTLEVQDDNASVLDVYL", "test": "Adapta Universal Kinase Assay, panel of 486 biochemical kinase assays", "design": "% Inhibition Average: concentration or dose not given beside the values", "settings": "kinase PIP5K1B; Adapta"}, "various kinases [4]": {"biological_target": "various kinases (Homo sapiens, UniProt P42336)", "test": "Adapta Universal Kinase Assay, panel of 486 biochemical kinase assays", "design": "% Inhibition Average: concentration or dose not given beside the values"}, "various kinases [5]": {"biological_target": "various kinases (Homo sapiens, UniProt P42336, E542K)", "test": "Adapta Universal Kinase Assay, panel of 486 biochemical kinase assays", "design": "% Inhibition Average: concentration or dose not given beside the values", "settings": "PIK3CA E542K/PIK3R1 (p110 alpha E542K/p85 alpha)"}, "various kinases [6]": {"biological_target": "various kinases (Homo sapiens, UniProt P42338)", "sequence (P42338 whole entry)": "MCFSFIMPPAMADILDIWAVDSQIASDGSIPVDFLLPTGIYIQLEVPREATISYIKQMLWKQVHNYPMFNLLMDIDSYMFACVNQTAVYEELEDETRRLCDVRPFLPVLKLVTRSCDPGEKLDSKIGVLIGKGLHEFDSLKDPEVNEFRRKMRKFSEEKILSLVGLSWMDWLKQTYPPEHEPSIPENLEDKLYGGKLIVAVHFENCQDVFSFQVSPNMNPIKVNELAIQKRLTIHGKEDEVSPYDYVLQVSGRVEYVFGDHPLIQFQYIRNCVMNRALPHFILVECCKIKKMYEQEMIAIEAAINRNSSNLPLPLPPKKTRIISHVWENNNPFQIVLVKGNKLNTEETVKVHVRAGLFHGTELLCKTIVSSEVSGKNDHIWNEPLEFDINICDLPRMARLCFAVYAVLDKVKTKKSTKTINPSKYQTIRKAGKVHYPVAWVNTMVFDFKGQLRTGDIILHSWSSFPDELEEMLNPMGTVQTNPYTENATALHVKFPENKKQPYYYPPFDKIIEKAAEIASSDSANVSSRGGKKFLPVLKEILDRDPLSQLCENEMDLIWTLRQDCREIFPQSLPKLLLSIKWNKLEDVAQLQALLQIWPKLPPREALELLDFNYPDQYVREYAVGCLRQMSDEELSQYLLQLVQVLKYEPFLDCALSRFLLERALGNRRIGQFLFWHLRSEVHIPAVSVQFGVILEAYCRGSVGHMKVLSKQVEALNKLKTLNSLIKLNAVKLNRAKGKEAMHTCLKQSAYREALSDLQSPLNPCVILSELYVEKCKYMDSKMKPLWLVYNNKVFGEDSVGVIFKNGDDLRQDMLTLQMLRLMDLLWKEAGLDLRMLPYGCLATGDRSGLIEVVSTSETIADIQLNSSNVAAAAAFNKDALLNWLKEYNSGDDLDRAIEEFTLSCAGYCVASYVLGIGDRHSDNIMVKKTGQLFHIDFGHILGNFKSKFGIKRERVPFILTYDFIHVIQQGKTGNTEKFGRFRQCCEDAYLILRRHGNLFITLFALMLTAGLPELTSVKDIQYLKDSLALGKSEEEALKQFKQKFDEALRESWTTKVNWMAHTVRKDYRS", "test": "Adapta Universal Kinase Assay, panel of 486 biochemical kinase assays", "design": "% Inhibition Average: concentration or dose not given beside the values"}, "various kinases [7]": {"biological_target": "various kinases (Homo sapiens, UniProt P50750)", "sequence (P50750 whole entry)": "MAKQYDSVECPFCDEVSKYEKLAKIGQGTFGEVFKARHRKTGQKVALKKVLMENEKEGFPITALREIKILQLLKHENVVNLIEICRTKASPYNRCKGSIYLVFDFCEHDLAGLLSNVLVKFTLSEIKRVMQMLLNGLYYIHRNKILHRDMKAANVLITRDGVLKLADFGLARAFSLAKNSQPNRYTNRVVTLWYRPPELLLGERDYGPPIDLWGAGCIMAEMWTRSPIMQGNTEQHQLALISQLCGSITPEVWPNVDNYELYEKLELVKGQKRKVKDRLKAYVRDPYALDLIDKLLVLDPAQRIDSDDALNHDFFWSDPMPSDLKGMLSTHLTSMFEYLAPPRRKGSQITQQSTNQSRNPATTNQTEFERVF", "test": "Adapta Universal Kinase Assay, panel of 486 biochemical kinase assays", "design": "% Inhibition Average: concentration or dose not given beside the values", "settings": "CDK9/cyclin T1"}, "various kinases [8]": {"biological_target": "various kinases (Homo sapiens, UniProt P53355)", "test": "Adapta Universal Kinase Assay, panel of 486 biochemical kinase assays", "design": "% Inhibition Average: concentration or dose not given beside the values", "settings": "DAPK1"}, "various kinases [9]": {"biological_target": "various kinases (Homo sapiens, UniProt Q14012)", "test": "Adapta Universal Kinase Assay, panel of 486 biochemical kinase assays", "design": "% Inhibition Average: concentration or dose not given beside the values", "settings": "CAMK1 (CaMK1)"}, "various kinases [10]": {"biological_target": "various kinases (Homo sapiens, UniProt Q5S007, G2019S)", "sequence (Q5S007 whole entry G2019S)": "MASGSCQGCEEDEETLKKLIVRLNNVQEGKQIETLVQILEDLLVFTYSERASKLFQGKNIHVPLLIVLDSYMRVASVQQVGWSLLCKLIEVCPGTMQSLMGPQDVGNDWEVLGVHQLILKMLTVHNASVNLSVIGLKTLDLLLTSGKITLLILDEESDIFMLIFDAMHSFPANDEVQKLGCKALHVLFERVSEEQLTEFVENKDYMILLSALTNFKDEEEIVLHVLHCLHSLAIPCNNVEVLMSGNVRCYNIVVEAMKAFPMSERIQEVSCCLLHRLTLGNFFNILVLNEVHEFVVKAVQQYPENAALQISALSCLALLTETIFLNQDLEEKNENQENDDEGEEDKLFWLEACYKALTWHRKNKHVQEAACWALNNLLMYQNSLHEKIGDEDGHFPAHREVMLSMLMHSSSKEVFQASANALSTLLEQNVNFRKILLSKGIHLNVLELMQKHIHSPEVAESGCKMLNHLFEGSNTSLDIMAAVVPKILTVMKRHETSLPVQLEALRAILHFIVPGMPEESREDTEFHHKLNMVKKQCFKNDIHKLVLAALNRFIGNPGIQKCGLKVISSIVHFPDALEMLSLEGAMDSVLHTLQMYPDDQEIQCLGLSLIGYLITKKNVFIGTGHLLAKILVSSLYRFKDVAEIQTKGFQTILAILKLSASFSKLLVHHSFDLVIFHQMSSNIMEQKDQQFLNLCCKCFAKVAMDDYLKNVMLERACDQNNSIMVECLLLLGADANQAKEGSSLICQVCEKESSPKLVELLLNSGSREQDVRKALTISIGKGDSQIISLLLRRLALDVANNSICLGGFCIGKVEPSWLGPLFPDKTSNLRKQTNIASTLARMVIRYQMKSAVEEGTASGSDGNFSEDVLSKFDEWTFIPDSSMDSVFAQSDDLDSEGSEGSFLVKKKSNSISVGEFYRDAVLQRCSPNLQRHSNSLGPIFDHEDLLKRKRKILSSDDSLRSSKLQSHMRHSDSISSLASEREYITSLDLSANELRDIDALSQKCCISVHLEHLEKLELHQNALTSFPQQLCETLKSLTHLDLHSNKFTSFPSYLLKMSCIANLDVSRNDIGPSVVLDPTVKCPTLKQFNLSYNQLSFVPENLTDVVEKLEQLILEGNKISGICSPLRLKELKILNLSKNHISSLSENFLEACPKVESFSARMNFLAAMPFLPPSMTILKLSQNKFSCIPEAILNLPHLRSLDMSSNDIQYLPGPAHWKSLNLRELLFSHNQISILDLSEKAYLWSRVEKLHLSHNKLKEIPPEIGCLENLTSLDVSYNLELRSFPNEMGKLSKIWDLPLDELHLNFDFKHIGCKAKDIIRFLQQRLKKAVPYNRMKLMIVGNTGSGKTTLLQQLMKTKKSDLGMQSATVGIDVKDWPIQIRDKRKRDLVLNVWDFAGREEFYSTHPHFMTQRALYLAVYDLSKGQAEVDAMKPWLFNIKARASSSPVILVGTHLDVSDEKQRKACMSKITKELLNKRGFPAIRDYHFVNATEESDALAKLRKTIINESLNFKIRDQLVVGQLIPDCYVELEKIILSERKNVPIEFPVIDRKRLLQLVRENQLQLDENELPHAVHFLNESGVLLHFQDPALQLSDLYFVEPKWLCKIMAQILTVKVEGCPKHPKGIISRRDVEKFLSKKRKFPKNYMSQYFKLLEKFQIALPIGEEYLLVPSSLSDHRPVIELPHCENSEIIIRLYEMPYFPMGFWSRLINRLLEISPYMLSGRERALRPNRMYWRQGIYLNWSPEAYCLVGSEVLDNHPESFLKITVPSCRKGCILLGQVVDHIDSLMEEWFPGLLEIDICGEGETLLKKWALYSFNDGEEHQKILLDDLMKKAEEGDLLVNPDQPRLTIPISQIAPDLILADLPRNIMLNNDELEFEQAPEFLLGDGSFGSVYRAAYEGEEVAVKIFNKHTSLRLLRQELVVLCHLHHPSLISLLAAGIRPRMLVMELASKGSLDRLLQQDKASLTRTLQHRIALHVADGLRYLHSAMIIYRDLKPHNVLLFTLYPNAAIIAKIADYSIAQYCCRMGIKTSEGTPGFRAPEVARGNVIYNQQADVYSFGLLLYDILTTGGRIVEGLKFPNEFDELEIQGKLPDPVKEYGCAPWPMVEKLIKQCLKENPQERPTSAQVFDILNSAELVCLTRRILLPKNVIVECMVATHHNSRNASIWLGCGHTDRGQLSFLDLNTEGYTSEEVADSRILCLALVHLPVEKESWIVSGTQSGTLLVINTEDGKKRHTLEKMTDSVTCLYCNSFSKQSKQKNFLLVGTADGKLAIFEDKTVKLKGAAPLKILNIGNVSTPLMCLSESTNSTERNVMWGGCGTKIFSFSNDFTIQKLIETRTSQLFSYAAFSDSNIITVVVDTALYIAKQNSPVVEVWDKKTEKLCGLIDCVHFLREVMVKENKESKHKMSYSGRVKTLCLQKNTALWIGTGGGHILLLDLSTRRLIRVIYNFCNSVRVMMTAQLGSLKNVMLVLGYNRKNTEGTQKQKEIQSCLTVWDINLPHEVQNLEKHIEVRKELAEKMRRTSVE", "test": "Adapta Universal Kinase Assay, panel of 486 biochemical kinase assays", "design": "% Inhibition Average: concentration or dose not given beside the values"}, "various kinases [11]": {"biological_target": "various kinases (Homo sapiens, UniProt Q5S007, I2020T)", "sequence (Q5S007 whole entry I2020T)": "as the sequence (Q5S007 whole entry G2019S) above, with S2019G, I2020T counted along it", "test": "Adapta Universal Kinase Assay, panel of 486 biochemical kinase assays", "design": "% Inhibition Average: concentration or dose not given beside the values", "settings": "LRRK2 I2020T"}, "various kinases [12]": {"biological_target": "various kinases (Homo sapiens, UniProt Q8NEB9)", "test": "Adapta Universal Kinase Assay, panel of 486 biochemical kinase assays", "design": "% Inhibition Average: concentration or dose not given beside the values", "settings": "PIK3C3 (hVPS34)"}, "various kinases [13]": {"biological_target": "various kinases (Homo sapiens, UniProt Q8TCG2)", "test": "Adapta Universal Kinase Assay, panel of 486 biochemical kinase assays", "design": "% Inhibition Average: concentration or dose not given beside the values", "settings": "PI4K2B (PI4K2 beta)"}, "various kinases [14]": {"biological_target": "various kinases (Homo sapiens, UniProt Q8TF76)", "test": "Adapta Universal Kinase Assay, panel of 486 biochemical kinase assays", "design": "% Inhibition Average: concentration or dose not given beside the values", "settings": "GSG2 (Haspin)"}, "various kinases [15]": {"biological_target": "various kinases (Homo sapiens, UniProt Q9BTU6)", "test": "Adapta Universal Kinase Assay, panel of 486 biochemical kinase assays", "design": "% Inhibition Average: concentration or dose not given beside the values", "settings": "PI4K2A (PI4K2 alpha)"}, "various kinases [16]": {"biological_target": "T1, various kinases (Homo sapiens, UniProt Q9NRA0)", "T1 sequence (Q9NRA0 1-654)": "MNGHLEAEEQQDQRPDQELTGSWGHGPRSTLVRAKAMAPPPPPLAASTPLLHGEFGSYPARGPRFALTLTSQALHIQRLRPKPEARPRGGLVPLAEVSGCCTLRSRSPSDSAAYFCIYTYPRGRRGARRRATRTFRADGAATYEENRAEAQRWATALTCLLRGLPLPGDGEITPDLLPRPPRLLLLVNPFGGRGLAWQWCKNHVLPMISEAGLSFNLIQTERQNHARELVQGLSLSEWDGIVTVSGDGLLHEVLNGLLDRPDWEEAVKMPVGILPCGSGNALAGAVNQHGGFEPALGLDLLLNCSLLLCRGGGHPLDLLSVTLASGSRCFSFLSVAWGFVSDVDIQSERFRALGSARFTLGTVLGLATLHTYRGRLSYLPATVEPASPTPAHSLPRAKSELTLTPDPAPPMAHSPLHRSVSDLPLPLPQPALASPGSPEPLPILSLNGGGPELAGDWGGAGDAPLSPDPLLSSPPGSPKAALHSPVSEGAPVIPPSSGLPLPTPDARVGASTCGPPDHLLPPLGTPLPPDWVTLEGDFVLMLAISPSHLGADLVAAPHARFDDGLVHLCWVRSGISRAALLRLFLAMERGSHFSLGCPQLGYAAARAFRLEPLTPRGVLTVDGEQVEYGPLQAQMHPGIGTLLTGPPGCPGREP", "test": "Adapta Universal Kinase Assay, panel of 486 biochemical kinase assays", "design": "% Inhibition Average: concentration or dose not given beside the values", "settings": "kinase SPHK2; Adapta"}, "various kinases [17]": {"biological_target": "various kinases (Homo sapiens, UniProt Q9NYA1)", "sequence (Q9NYA1 whole entry)": "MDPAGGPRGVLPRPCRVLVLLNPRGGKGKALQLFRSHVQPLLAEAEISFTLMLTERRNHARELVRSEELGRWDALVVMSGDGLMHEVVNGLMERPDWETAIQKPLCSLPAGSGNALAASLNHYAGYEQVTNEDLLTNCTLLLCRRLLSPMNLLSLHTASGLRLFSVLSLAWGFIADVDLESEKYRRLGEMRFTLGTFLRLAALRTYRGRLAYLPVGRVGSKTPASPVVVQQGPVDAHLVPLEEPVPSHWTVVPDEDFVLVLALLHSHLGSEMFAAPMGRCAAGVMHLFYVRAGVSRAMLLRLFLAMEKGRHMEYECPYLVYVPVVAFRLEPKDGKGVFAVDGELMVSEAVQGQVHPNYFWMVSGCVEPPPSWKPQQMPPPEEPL", "test": "Adapta Universal Kinase Assay, panel of 486 biochemical kinase assays", "design": "% Inhibition Average: concentration or dose not given beside the values", "settings": "kinase SPHK1; Adapta"}, "DAOY cells": {"tested_on": "DAOY cells", "test": "Viability assay (Presto Blue), DAOY", "assay_type": "cell-based", "settings": "Homo sapiens, dose-response 1nM to 10μM"}, "MON MRT cells": {"tested_on": "MON MRT cells", "test": "Confluency assay (IncuCyte ZOOM), MON", "assay_type": "cell-based, human", "settings": "increasing concentrations starting at 31.25nM, 48 hours, p-value=0.004", "protocol": "For further evaluation of the effect of the PLK4 inhibitor over tumor cell proliferation, confluency was measured over a 48 hour period. MON, BT-12, G401 and DAOY cells were plated in 96-well plates with a density of 6 x 10^4 per well. […] Confluency was monitored for 48 hours by taking phase contrast images every 2 hours and measured using an IncuCyte ZOOM system (Essen BioScience, USA). Experiments were performed in triplicates."}}, "note": "Several values for one entry are separate records, joined by “and”; a condition that tells them apart may be missing. Equal values may be shown once.", "data": [{"smiles": "COc1ccc2c(c1)[C@]1(C[C@H]1c1ccc3c(/C=C/c4ccc(CN5C[C@@H](C)O[C@@H](C)C5)cc4)n[nH]c3c1)C(=O)N2", "note": "[CFI-400945]", "values": [{"measurement": "IC50", "setting": "MUSK", "value": 48.7, "unit": "nM"}, {"measurement": "% Inhibition", "setting": "various kinases [1]", "value": "0% and 1%"}, {"measurement": "% Inhibition", "setting": "various kinases [2]", "value": "2% and -1%"}, {"measurement": "% Inhibition Average", "setting": "various kinases [3]", "value": -1, "unit": "%"}, {"measurement": "% Inhibition Duplicate #1", "setting": "various kinases [3]", "value": 2, "unit": "%"}, {"measurement": "% Inhibition Duplicate #2", "setting": "various kinases [3]", "value": -3, "unit": "%"}, {"measurement": "% Inhibition", "setting": "various kinases [4]; PIK3CA/PIK3R1 (p110 alpha/p85 alpha)", "value": "-9% and -6%"}, {"measurement": "% Inhibition", "setting": "various kinases [4]; PIK3CA/PIK3R3 (p110 alpha/p55 gamma)", "value": "-2% and 6%"}, {"measurement": "% Inhibition", "setting": "various kinases [5]", "value": "6% and 9%"}, {"measurement": "% Inhibition", "setting": "various kinases [6]; PIK3CB/PIK3R1 (p110 beta/p85 alpha)", "value": "4% and 3%"}, {"measurement": "% Inhibition", "setting": "various kinases [6]; PIK3CB/PIK3R2 (p110 beta/p85 beta)", "value": "12% and 6%"}, {"measurement": "% Inhibition", "setting": "various kinases [7]", "value": "17% and 14%"}, {"measurement": "% Inhibition", "setting": "various kinases [8]", "value": "2% and 0%"}, {"measurement": "% Inhibition", "setting": "various kinases [9]", "value": "21% and 24%"}, {"measurement": "% Inhibition", "setting": "various kinases [10]; LRRK2 G2019S", "value": "54% and 55%"}, {"measurement": "% Inhibition", "setting": "various kinases [10]; LRRK2 G2019S FL", "value": "54% and 50%"}, {"measurement": "% Inhibition", "setting": "various kinases [11]", "value": "44% and 46%"}, {"measurement": "% Inhibition", "setting": "various kinases [12]", "value": "8% and 15%"}, {"measurement": "% Inhibition", "setting": "various kinases [13]", "value": "-13% and -11%"}, {"measurement": "% Inhibition", "setting": "various kinases [14]", "value": "-7% and 3%"}, {"measurement": "% Inhibition", "setting": "various kinases [15]", "value": "-1% and 2%"}, {"measurement": "% Inhibition Average", "setting": "various kinases [16]", "value": -20, "unit": "%"}, {"measurement": "% Inhibition Duplicate #1", "setting": "various kinases [16]", "value": -15, "unit": "%"}, {"measurement": "% Inhibition Duplicate #2", "setting": "various kinases [16]", "value": -24, "unit": "%"}, {"measurement": "% Inhibition Average", "setting": "various kinases [17]", "value": -12, "unit": "%"}, {"measurement": "% Inhibition Duplicate #1", "setting": "various kinases [17]", "value": -11, "unit": "%"}, {"measurement": "% Inhibition Duplicate #2", "setting": "various kinases [17]", "value": -14, "unit": "%"}, {"measurement": "IC50", "setting": "DAOY cells", "value": 94, "unit": "nM"}, {"measurement": "FC, delay in reaching confluency", "setting": "MON MRT cells", "value": 1.56}]}]}
